# Measured values from patent US9169254B2, “Spiroimidazolone derivative” (Chugai Seiyaku Kabushiki Kaisha, priority 2009, dated 2015).
# Target: T1, human PTH1 receptor (Homo sapiens, UniProt Q03431)
# T1 sequence (Q03431 27-593): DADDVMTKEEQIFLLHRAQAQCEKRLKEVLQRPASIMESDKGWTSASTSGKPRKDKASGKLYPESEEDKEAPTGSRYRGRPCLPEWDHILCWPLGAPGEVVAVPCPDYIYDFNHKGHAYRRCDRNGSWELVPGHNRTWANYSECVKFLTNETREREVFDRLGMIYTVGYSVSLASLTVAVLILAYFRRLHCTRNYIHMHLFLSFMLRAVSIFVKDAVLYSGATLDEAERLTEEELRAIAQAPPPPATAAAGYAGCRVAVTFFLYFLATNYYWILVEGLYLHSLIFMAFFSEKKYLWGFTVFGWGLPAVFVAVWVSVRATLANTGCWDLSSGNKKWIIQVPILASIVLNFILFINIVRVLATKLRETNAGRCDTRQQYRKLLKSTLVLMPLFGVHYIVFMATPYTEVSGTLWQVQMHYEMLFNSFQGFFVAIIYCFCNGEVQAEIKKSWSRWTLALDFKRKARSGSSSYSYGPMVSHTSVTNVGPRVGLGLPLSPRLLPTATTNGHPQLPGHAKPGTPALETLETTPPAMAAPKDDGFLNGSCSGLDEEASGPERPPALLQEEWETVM
# Assay: In vitro cAMP signal activity in HKRK-B7 cells (LLC-PK1 cells overexpressing the human PTH1 receptor)
# Format: cell-based
# Settings: HKRK-B7 cells; compound at 1×10^−3 M; cAMP produced as percentage of that produced by hPTH(1-34) at 100 nM
row,Structure (SMILES),cAMP production activity (%)
1,"Cc1cc(C(=O)N(C)C)ccc1CCS(=O)(=O)N1CCC2(CC1)N=C(C1(C(F)(F)F)CCCC1)NC2=O [Compound 138, 3,N,N-trimethyl-4-{2-[4-oxo-2-(1-trifluoromethyl-cyclopentyl)-1,3,8-triaza-spiro[4.5]dec-1-ene-8-sulfonyl]-ethyl}-benzamide]",49%
2,"Cc1cc(C(=O)N(C)C)ccc1CCS(=O)(=O)N1CCC2(CC1)N=C(c1ccc(C(F)(F)F)cc1F)NC2=O [Compound 139, 4-{2-[2-(2-fluoro-4-trifluoromethyl-phenyl)-4-oxo-1,3,8-triaza-spiro[4.5]dec-1-ene-8-sulfonyl]-ethyl}-3,N,N-trimethyl-benzamide]",64%
3,"Cc1cc(C(=O)N(C)C)ccc1CCS(=O)(=O)N1CCC2(CC1)N=C(c1cccc(OC(F)(F)C(F)F)c1)NC2=O [Compound 140, 3,N,N-trimethyl-4-(2-{4-oxo-2-[3-(1,1,2,2-tetrafluoro-ethoxy)-phenyl]-1,3,8-triaza-spiro[4.5]dec-1-ene-8-sulfonyl}-ethyl)-benzamide]",77%
4,"C/C=C/C1=NC2(CCN(S(=O)(=O)CCc3ccc(C(=O)N(C)C)cc3C)CC2)C(=O)N1 [Compound 141, 3,N,N-trimethyl-4-{2-[4-oxo-2-((E)-propenyl)-1,3,8-triaza-spiro[4.5]dec-1-ene-8-sulfonyl]-ethyl}-benzamide]",32%
5,"Cc1cc(C(=O)N(C)C)ccc1CCS(=O)(=O)N1CCC2(CC1)N=C(/C=C/c1ccccc1)NC2=O [Compound 142, 3,N,N-trimethyl-4-{2-[4-oxo-2-((E)-styryl)-1,3,8-triaza-spiro[4.5]dec-1-ene-8-sulfonyl]-ethyl}-benzamide]",63%
6,"Cc1cc(C(=O)N(C)C)ccc1CCS(=O)(=O)N1CCC2(CC1)N=C(c1ccc3ncsc3c1)NC2=O [Compound 143, 4-[2-(2-benzothiazol-6-yl-4-oxo-1,3,8-triaza-spiro[4.5]dec-1-ene-8-sulfonyl)-ethyl]-3,N,N-trimethyl-benzamide]",4.5%
7,"COc1ccc(C2=NC3(CCN(S(=O)(=O)CCc4ccc(C(=O)N(C)C)cc4C)CC3)C(=O)N2)cc1C(F)(F)F [Compound 144, 4-{2-[2-(4-methoxy-3-trifluoromethyl-phenyl)-4-oxo-1,3,8-triaza-spiro[4.5]dec-1-ene-8-sulfonyl]-ethyl}-3,N,N-trimethyl-benzamide]",59%
8,"CC(=O)OC[C@H](CN(C(C)=O)c1ccc(CCS(=O)(=O)N2CCC3(CC2)N=C(c2cccc(C(F)(F)F)c2)NC3=O)c(C)c1)OC(C)=O [Compound 150, Acetic acid (S)-1-acetoxymethyl-2-[acetyl-(3-methyl-4-{2-[4-oxo-2-(3-trifluoromethyl-phenyl)-1,3,8-triaza-spiro[4.5]dec-1-ene-8-sulfonyl]-ethyl}-phenyl)-amino]-ethyl ester]",62%
9,"CC(=O)OC[C@H](CN(C(C)=O)c1ccc(CCS(=O)(=O)N2CCC3(CC2)N=C(c2ccc(C(F)(F)F)cc2)NC3=O)c(C)c1)OC(C)=O [Compound 151, acetic acid (S)-1-acetoxymethyl-2-[acetyl-(3-methyl-4-{2-[4-oxo-2-(4-trifluoromethyl-phenyl)-1,3,8-triaza-spiro[4.5]dec-1-ene-8-sulfonyl]-ethyl}-phenyl)-amino]-ethyl ester]",53%
10,"CC(=O)OC[C@H](CN(C(C)=O)c1ccc(CCS(=O)(=O)N2CCC3(CC2)N=C(c2ccc(OC(F)(F)F)cc2)NC3=O)c(C)c1)OC(C)=O [Compound 152, acetic acid (S)-1-acetoxymethyl-2-[acetyl-(3-methyl-4-{2-[4-oxo-2-(4-trifluoromethoxy-phenyl)-1,3,8-triaza-spiro[4.5]dec-1-ene-8-sulfonyl]-ethyl}-phenyl)-amino]-ethyl ester]",47%
11,"CC(=O)OC[C@H](CN(C(C)=O)c1ccc(CCS(=O)(=O)N2CCC3(CC2)N=C(c2ccc(F)c(C(F)(F)F)c2)NC3=O)c(C)c1)OC(C)=O [Compound 153, acetic acid (S)-1-acetoxymethyl-2-[acetyl-(4-{2-[2-(4-fluoro-3-trifluoromethyl-phenyl)-4-oxo-1,3,8-triaza-spiro[4.5]dec-1-ene-8-sulfonyl]-ethyl}-3-methyl-phenyl)-amino]-ethyl ester]",59%

# Further lines, results first:
row,cAMP production activity (%),Structure (SMILES)
1,129%,"CC(=O)Nc1ccc(CCS(=O)(=O)N2CCC3(CC2)N=C(c2cccc(C)c2)NC3=O)c(C)c1 [Compound 145, N-{3-Methyl-4-[2-(4-oxo-2-m-tolyl-1,3,8-triaza-spiro[4.5]dec-1-ene-8-sulfonyl)-ethyl]-phenyl}-acetamide]"
2,122%,"CC(=O)Nc1ccc(CCS(=O)(=O)N2CCC3(CC2)N=C(c2cccc(C)c2C)NC3=O)c(C)c1 [Compound 146, N-(4-{2-[2-(2,3-dimethyl-phenyl)-4-oxo-1,3,8-triaza-spiro[4.5]dec-1-ene-8-sulfonyl]-ethyl}-3-methyl-phenyl)-acetamide]"
3,105%,"CC(=O)Nc1ccc(CCS(=O)(=O)N2CCC3(CC2)N=C(c2cccc(Cl)c2Cl)NC3=O)c(C)c1 [Compound 147, N-(4-{2-[2-(2,3-dichloro-phenyl)-4-oxo-1,3,8-triaza-spiro[4.5]dec-1-ene-8-sulfonyl]-ethyl}-3-methyl-phenyl)-acetamide]"
4,79%,"CC(=O)Nc1ccc(CCS(=O)(=O)N2CCC3(CC2)N=C(C2CCC(C)CC2)NC3=O)c(C)c1 (stereo not shown) [Compound 148, N-(3-methyl-4-{2-[2-(4-methyl-cyclohexyl)-4-oxo-1,3,8-triaza-spiro[4.5]dec-1-ene-8-sulfonyl]-ethyl}-phenyl)-acetamide]"
5,56%,"CC(=O)N(CCO)c1ccc(CCS(=O)(=O)N2CCC3(CC2)N=C(c2cccc(OC(F)(F)F)c2)NC3=O)c(C)c1 [Compound 149, N-(2-Hydroxy-ethyl)-N-(3-methyl-4-{2-[4-oxo-2-(3-trifluoromethoxy-phenyl)-1,3,8-triaza-spiro[4.5]dec-1-ene-8-sulfonyl]-ethyl}-phenyl)-acetamide]"
6,82%,"Cc1cc(NC[C@H](O)CO)ccc1CCS(=O)(=O)N1CCC2(CC1)N=C(c1ccc(C(F)(F)F)cc1)NC2=O [Compound 154, 8-{2-[4-((S)-2,3-Dihydroxy-propylamino)-2-methyl-phenyl]-ethanesulfonyl}-2-(4-trifluoromethyl-phenyl)-1,3,8-triaza-spiro[4.5]dec-1-en-4-one]"
7,45%,"Cc1cc(NC[C@H](O)CO)ccc1CCS(=O)(=O)N1CCC2(CC1)N=C(c1cccc(C(F)(F)F)c1)NC2=O [Compound 155, 8-{2-[4-((S)-2,3-dihydroxy-propylamino)-2-methyl-phenyl]-ethanesulfonyl}-2-(3-trifluoromethyl-phenyl)-1,3,8-triaza-spiro[4.5]dec-1-en-4-one]"
8,64%,"Cc1cc(NC[C@H](O)CO)ccc1CCS(=O)(=O)N1CCC2(CC1)N=C(c1ccc(OC(F)(F)F)cc1)NC2=O [Compound 156, 8-{2-[4-((S)-2,3-Dihydroxy-propylamino)-2-methyl-phenyl]-ethanesulfonyl}-2-(4-trifluoromethoxy-phenyl)-1,3,8-triaza-spiro[4.5]dec-1-en-4-one]"
9,70%,"Cc1cc(NC[C@H](O)CO)ccc1CCS(=O)(=O)N1CCC2(CC1)N=C(c1cccc(Cl)c1)NC2=O [Compound 157, 2-(3-chloro-phenyl)-8-{2-[4-((S)-2,3-dihydroxy-propylamino)-2-methyl-phenyl]-ethanesulfonyl}-1,3,8-triaza-spiro[4.5]dec-1-en-4-one]"
10,62%,"Cc1cc(NC[C@H](O)CO)ccc1CCS(=O)(=O)N1CCC2(CC1)N=C(c1ccc(Cl)cc1)NC2=O [Compound 158, 2-(4-chloro-phenyl)-8-{2-[4-((S)-2,3-dihydroxy-propylamino)-2-methyl-phenyl]-ethanesulfonyl}-1,3,8-triaza-spiro[4.5]dec-1-en-4-one]"
11,96%,"Cc1cc(NCCO)ccc1CCS(=O)(=O)N1CCC2(CC1)N=C(c1cccc(OC(F)(F)F)c1)NC2=O [Compound 159, 8-{2-[4-(2-Hydroxy-ethylamino)-2-methyl-phenyl]-ethanesulfonyl}-2-(3-trifluoromethoxy-phenyl)-1,3,8-triaza-spiro[4.5]dec-1-en-4-one]"
12,65%,"Cc1cc(NCCO)ccc1CCS(=O)(=O)N1CCC2(CC1)N=C(c1cccc(C(F)(F)F)c1)NC2=O [Compound 160, 8-{2-[4-(2-hydroxy-ethylamino)-2-methyl-phenyl]-ethanesulfonyl}-2-(3-trifluoromethyl-phenyl)-1,3,8-triaza-spiro[4.5]dec-1-en-4-one]"
13,69%,"Cc1cc(NCCO)ccc1CCS(=O)(=O)N1CCC2(CC1)N=C(c1ccc(C(F)(F)F)cc1)NC2=O [Compound 161, 8-{2-[4-(2-hydroxy-ethylamino)-2-methyl-phenyl]-ethanesulfonyl}-2-(4-trifluoromethyl-phenyl)-1,3,8-triaza-spiro[4.5]dec-1-en-4-one]"
14,43%,"Cc1cc(CNC(=O)OC(C)(C)C)ccc1CCS(=O)(=O)N1CCC2(CC1)N=C(C(C)(C)C)NC2=O [Compound 162, {4-[2-(2-tert-Butyl-4-oxo-1,3,8-triaza-spiro[4.5]dec-1-ene-8-sulfonyl)-ethyl]-3-methyl-benzyl}-carbamic acid tert-butyl ester]"
